Experimental data taken from ChEMBL document CHEMBL1159219, “Flavonoids as DNA topoisomerase antagonists and poisons: structure-activity relationships” (J Nat Prod, 1995).
Converted amounts (≈) assume the structure as drawn. The source made the active and inactive calls. The calls are words filed in the database; no cut-off is given here.

Key:
Escherichia coli = assay: Binding affinity to Escherichia coli pUC8 DNA assessed as production of linear DNA at 100 ug/ml after 30 mins by agarose gel electrophoresis
[1] = target: T1, DNA topoisomerase 2-alpha (Homo sapiens, UniProt P11388); assay: Enhancement of human DNA topoisomerase 2-mediated Escherichia coli pUC8 DNA cleavage assessed as production of linear DNA at 100 ug/ml after 30 mins by agarose gel electrophoresis relative to total DNA
T1 sequence (P11388 whole entry, the tested form may be a part): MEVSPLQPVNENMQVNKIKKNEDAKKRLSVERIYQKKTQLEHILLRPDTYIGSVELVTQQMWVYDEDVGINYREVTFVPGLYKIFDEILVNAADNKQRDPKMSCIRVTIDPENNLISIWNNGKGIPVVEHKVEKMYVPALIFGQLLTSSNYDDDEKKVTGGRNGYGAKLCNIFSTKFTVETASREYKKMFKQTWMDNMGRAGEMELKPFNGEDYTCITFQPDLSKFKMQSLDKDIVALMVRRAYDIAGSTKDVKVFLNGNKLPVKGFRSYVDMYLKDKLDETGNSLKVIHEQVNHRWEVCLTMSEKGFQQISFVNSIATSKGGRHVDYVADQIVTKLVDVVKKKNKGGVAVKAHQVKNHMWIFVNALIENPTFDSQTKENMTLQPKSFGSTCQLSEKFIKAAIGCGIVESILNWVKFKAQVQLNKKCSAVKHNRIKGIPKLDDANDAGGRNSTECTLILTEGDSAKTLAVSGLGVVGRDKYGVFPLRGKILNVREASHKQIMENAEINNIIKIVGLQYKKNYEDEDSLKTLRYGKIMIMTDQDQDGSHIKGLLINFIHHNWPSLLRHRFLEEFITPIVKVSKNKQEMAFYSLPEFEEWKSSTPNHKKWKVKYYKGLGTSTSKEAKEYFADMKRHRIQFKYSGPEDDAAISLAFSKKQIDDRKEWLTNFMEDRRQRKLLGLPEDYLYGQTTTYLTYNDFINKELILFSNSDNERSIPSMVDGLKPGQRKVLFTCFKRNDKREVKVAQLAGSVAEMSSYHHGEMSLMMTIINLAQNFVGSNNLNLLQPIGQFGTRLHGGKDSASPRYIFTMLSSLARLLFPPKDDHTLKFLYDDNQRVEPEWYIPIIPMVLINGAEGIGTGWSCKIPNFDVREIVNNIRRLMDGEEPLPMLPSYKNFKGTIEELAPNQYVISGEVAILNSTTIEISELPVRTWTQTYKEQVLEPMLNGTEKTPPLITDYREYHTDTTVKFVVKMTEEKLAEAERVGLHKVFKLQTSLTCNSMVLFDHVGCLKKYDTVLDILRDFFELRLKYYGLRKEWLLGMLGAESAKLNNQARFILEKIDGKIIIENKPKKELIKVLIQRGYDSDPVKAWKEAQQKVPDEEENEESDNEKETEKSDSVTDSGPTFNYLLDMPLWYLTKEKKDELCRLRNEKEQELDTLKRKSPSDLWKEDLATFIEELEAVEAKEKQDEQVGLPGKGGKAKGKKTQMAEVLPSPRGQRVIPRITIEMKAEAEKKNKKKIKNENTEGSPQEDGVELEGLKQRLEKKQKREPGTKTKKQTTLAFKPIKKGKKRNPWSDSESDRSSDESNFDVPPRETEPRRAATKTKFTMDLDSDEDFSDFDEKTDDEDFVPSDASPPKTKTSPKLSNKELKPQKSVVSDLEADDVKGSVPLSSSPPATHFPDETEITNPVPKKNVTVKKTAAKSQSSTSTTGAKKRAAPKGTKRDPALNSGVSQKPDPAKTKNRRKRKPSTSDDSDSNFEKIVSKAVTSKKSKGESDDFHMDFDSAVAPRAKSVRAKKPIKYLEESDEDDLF

Bos taurus [2] = organism: Bos taurus; assay: Inhibition of calf thymus DNA topoisomerase 1 catalytic domain-mediated supercoiled Escherichia coli pUC8 DNA relaxation up to 100 uM after 30 mins by agarose gel electrophoresis
[3] = target: T1, DNA topoisomerase 2-alpha; assay: Enhancement of human DNA topoisomerase 2-mediated Escherichia coli pUC8 DNA cleavage assessed as production of linear DNA at 100 ug/ml after 30 mins by agarose gel electrophoresis relative to control
[4] = target: T1, DNA topoisomerase 2-alpha; assay: Inhibition of human DNA topoisomerase 2 catalytic domain-mediated knotted bacteriophage P4Virl dell0 DNA unknotting up to 100 uM by agarose gel electrophoresis
[5] = target: T1, DNA topoisomerase 2-alpha; assay: Enhancement of human DNA topoisomerase 2-mediated Escherichia coli pUC8 DNA cleavage after 30 mins by agarose gel electrophoresis; design: concentration or dose not given beside the values
[6] = target: T1, DNA topoisomerase 2-alpha; assay: Inhibition of human DNA topoisomerase 2 catalytic domain-mediated knotted bacteriophage P4Virl dell0 DNA unknotting by agarose gel electrophoresis
[7] = target: T1, DNA topoisomerase 2-alpha; assay: Enhancement of human DNA topoisomerase 2-mediated Escherichia coli pUC8 DNA cleavage assessed as production of linear DNA at 30 ug/ml after 30 mins by agarose gel electrophoresis
[8] = target: T1, DNA topoisomerase 2-alpha; assay: Enhancement of human DNA topoisomerase 2-mediated Escherichia coli pUC8 DNA cleavage assessed as production of linear DNA at 100 ug/ml after 30 mins by agarose gel electrophoresis
[9] = target: T1, DNA topoisomerase 2-alpha; assay: Inhibition of human DNA topoisomerase 2-mediated Escherichia coli pUC8 DNA cleavage enhancement assessed as absence of linear DNA production at 100 ug/ml after 30 mins by agarose gel electrophoresis in presence of 100 ug/ml genistein
Bos taurus [10] = organism: Bos taurus; assay: Inhibition of calf thymus DNA topoisomerase 1-mediated Escherichia coli pUC8 DNA cleavage enhancement assessed as absence of linear DNA production after 30 mins by agarose gel electrophoresis in presence of camptothecin
[11] = Inhibition of calf thymus DNA topoisomerase 1 catalytic domain-mediated supercoiled Escherichia coli pUC8 DNA relaxation after 30 mins by agarose gel electrophoresis; design: species or system Bos taurus
[12] = target: T1, DNA topoisomerase 2-alpha; assay: Inhibition of human DNA topoisomerase 2-mediated Escherichia coli pUC8 DNA cleavage enhancement assessed as reduction of linear DNA production after 30 mins by agarose gel electrophoresis in presence of 10 fold excess genistein
[13] = target: T1, DNA topoisomerase 2-alpha; assay: Enhancement of human DNA topoisomerase 2-mediated Escherichia coli pUC8 DNA cleavage assessed as production of linear DNA at 3 to 100 ug/ml after 30 mins by agarose gel electrophoresis
[14] = target: T1, DNA topoisomerase 2-alpha; assay: Inhibition of human DNA topoisomerase 2-mediated Escherichia coli pUC8 DNA cleavage enhancement assessed as absence of linear DNA production after 30 mins by agarose gel electrophoresis in presence of prunetin
[15] = target: T1, DNA topoisomerase 2-alpha; assay: Inhibition of human DNA topoisomerase 2 catalytic domain-mediated knotted bacteriophage P4Virl dell0 DNA unknotting at 100 uM by agarose gel electrophoresis
Bos taurus [16] = organism: Bos taurus; assay: Inhibition of calf thymus DNA topoisomerase 1 catalytic domain-mediated supercoiled Escherichia coli pUC8 DNA relaxation at 100 uM after 30 mins by agarose gel electrophoresis

SMILES | Activity (Bos taurus [2]) | Activity [4] | Activity [5] [%] | IC50 [6] [µM] | further results
O=c1cc(-c2ccc(O)cc2)oc2cc(O)cc(O)c12 | inactive | inactive | 60 | – | Activity (Escherichia coli): inactive; Activity [1]: 8.7%; Activity [3]: 1.6
O=c1c(-c2ccc(O)cc2)coc2cc(O)c(O)cc12 | inactive | – | – | 162 | –
O=c1c(O)c(-c2ccccc2)oc2cc(O)cc(O)c12 | inactive | inactive | – | – | –
O=c1c(-c2ccc(O)cc2)coc2cc(O)ccc12 | inactive | inactive | – | – | –
O=c1cc(-c2ccccc2)oc2cc(O)ccc12 | inactive | inactive | – | – | –
O=c1c(O)c(-c2ccccc2)oc2ccccc12 | inactive | inactive | – | – | –
O=c1c(-c2ccc(O)cc2)coc2cc(O)cc(O)c12 [GENISTEIN] | inactive | – | – | 111 | Activity (Escherichia coli): inactive; Activity [1]: 16.2%; Activity [7]: Active; Activity [3]: 3.1; Activity [8]: Active
C[C@@H]1O[C@@H](OC[C@H]2O[C@@H](Oc3c(-c4ccc(O)c(O)c4)oc4cc(O)cc(O)c4c3=O)[C@H](O)[C@@H](O)[C@@H]2O)[C@H](O)[C@H](O)[C@H]1O | inactive | inactive | – | – | –
O=c1cc(-c2ccccc2)oc2cccc(O)c12 | inactive | inactive | < 50 | – | –
O=c1c(-c2ccc(O)c(O)c2)coc2cc(O)ccc12 | inactive | inactive | – | – | –
O=c1cc(-c2ccccc2)oc2ccc(O)cc12 | inactive | inactive | < 50 | – | –
O=c1c(O)c(-c2cc(O)c(O)c(O)c2)oc2cc(O)cc(O)c12 [MYRICETIN] | – | – | – | – | Activity [9]: Active; Activity (Bos taurus [10]): inactive; IC50 [11]: 11.9 µg/mL (≈ 37.4 µM); Activity [12]: inactive; Activity [13]: inactive; Activity [14]: Active
COc1cc(O)c2c(=O)c(-c3ccc(O)cc3)coc2c1 | inactive | inactive | 60 | – | Activity (Escherichia coli): inactive; Activity [1]: 9.2%; Activity [3]: 1.7
O=c1cc(-c2ccccc2)oc2ccccc12 | inactive | inactive | – | – | –
O=C(CCc1ccc(O)cc1)c1c(O)cc(O)cc1O [PHLORETIN] | inactive | – | – | 168 | –
O=c1c(O)c(-c2ccc(O)c(O)c2)oc2cc(O)cc(O)c12 [QUERCETIN] | – | – | 60 | 22.8 | Activity (Escherichia coli): inactive; Activity [1]: 11.5%; Activity [15]: Active; Activity [3]: 2.2; IC50 [11]: 12.8 µg/mL (≈ 42.4 µM); Activity (Bos taurus [16]): Active
O=c1c(O)c(-c2ccc(O)c(O)c2)oc2cc(O)ccc12 [FISETIN] | – | – | < 50 | 28.6 | IC50 [11]: 20.6 µg/mL (≈ 72 µM)
O=c1c(O)c(-c2ccc(O)cc2)oc2cc(O)cc(O)c12 | inactive | inactive | 60 | – | Activity (Escherichia coli): inactive; Activity [1]: 8.3%; Activity [3]: 1.6
O=c1c(O)c(-c2ccc(O)cc2O)oc2cc(O)cc(O)c12 [MORIN] | – | – | < 50 | 135 | IC50 [11]: 42.1 µg/mL (≈ 139 µM)
Oc1cc(O)c2c(c1)O[C@H](c1ccc(O)c(O)c1)[C@@H](O)C2 | inactive | inactive | – | – | –
